Assay results from article PMC12442639, “A Two‐Protein Chemoreceptor Complex Regulates Oxygen Thresholds in Bacterial Magneto‐Aerotaxis” (Advanced Science, 2025).

Molecular target: T1, CetB2 (His6-CetB2) (Magnetospirillum gryphiswaldense, UniProt A0ACM8ULG3)
T1 construct: N-terminal His6 tag (pET28a), expressed in E. coli Rosetta(DE3) pLysSRARE, Ni-agarose purified; predicted FAD-site residues His54, Asn55, Arg58, Phe67, Trp71, Asn86, Val100, Arg117
Experiment: LC-MS of purified protein; UV/vis spectroscopy; cyclic voltammetry
Format: binding
Conditions: non-covalently bound, co-purified FAD; UV/vis in 50 mM Na-phosphate pH 8, 300 mM NaCl, 5% glycerol

T1 sequence (A0ACM8ULG3 entry or part of it): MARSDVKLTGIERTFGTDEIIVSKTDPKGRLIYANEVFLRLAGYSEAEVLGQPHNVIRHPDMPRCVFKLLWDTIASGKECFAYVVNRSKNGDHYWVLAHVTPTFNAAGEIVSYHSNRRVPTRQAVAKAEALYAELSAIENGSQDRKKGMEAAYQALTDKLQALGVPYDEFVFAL

With `Cc1cc2nc3c(=O)[nH]c(=O)nc-3n(C[C@H](O)[C@H](O)[C@H](O)COP(=O)(O)OP(=O)(O)OC[C@H]3O[C@@H](n4cnc5c(N)ncnc54)[C@H](O)[C@@H]3O)c2cc1C` [FAD, flavin adenine dinucleotide] the “LC-MS of purified protein; UV/vis spectroscopy; cyclic voltammetry” value was “indicates that FAD was non‐covalently bound to the protein and released during chromatographic separation”.
